Measured values: ChEMBL document CHEMBL1240489, “Discovery of N-{1-[3-(3-oxo-2,3-dihydrobenzo[1,4]oxazin-4-yl)propyl]piperidin-4-yl}-2-phenylacetamide (Lu AE51090): an allosteric muscarinic M1 receptor agonist with unprecedented selectivity and procognitive potential” (J Med Chem, 2010)

Experiments:
[1] = target: T1, Muscarinic acetylcholine receptor M2 (Homo sapiens) (UniProt P08172); test: Agonist activity at human muscarinic M2 receptor expressed in CHO-K1 cells coexpressing Galpha16 subunit assessed as increase of acetylcholine-induced calcium flux at 10 uM by FLIPR assay relative to acetylcholine; assay type: functional, cell-based
T1 sequence (whole entry): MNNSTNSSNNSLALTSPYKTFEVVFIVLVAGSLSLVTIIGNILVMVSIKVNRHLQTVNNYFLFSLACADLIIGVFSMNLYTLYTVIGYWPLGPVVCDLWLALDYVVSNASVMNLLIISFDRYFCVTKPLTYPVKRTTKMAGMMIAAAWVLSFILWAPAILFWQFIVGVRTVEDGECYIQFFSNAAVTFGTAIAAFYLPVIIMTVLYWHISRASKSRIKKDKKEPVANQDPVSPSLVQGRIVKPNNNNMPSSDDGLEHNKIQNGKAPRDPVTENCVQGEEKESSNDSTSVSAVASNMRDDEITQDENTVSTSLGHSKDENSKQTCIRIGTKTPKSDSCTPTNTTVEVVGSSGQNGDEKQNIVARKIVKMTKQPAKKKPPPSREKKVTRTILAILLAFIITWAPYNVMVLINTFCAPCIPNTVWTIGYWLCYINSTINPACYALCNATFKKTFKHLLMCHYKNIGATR

[2] = target: T2, Muscarinic acetylcholine receptor M2 (Homo sapiens, UniProt P08172); test: Displacement of [3H]-AFDX-384 from human muscarinic M2 receptor expressed in CHO-K1 cells; assay type: cell-based
T2 sequence (P08172 whole entry): T1 sequence (whole entry)

[3] = target: Muscarinic acetylcholine receptor M3 (Homo sapiens, UniProt P20309); test: Displacement of [3H]-4-DAMP from human muscarinic M3 receptor expressed in BHK-21 cells; assay type: cell-based
[4] = tested on: Hepatocyte; test: Intrinsic clearance in human hepatocytes at 1 uM after up to 120 mins by LC/MS-MS analysis; assay type: ADME, cell-based, Liver; conditions: 2 h
[5] = Clearance in rat plasma at 1 mg/kg, iv and 2 mg/kg, po; assay type: ADME, organism-based
[6] = Tmax in rat plasma at 2 mg/kg, po; assay type: ADME, organism-based; design: dose 2 mg/kg, route oral
[7] = Drug level in C57/6J mouse brain at 20 mg/kg, sc after 30 mins; assay type: ADME, organism-based; design: dose 20 mg/kg, route subcutaneous; conditions: read-out: Drug uptake
[8] = target: Phosphodiesterase 4 (Homo sapiens, UniProt P27815+Q08499+Q07343+Q08493); test: Binding affinity to human PDE4 rolipram binding site by radioligand displacement assay; assay type: protein assay
[9] = target: Melanocortin receptor 4 (Homo sapiens, UniProt P32245); test: Binding affinity to human MC4 receptor by radioligand displacement assay
[10] = target: 5-hydroxytryptamine receptor 2B (Homo sapiens, UniProt P41595); test: Binding affinity to human 5-HT2B agonist site receptor by radioligand displacement assay
Sequence of 5-hydroxytryptamine receptor 2B (P41595 whole entry): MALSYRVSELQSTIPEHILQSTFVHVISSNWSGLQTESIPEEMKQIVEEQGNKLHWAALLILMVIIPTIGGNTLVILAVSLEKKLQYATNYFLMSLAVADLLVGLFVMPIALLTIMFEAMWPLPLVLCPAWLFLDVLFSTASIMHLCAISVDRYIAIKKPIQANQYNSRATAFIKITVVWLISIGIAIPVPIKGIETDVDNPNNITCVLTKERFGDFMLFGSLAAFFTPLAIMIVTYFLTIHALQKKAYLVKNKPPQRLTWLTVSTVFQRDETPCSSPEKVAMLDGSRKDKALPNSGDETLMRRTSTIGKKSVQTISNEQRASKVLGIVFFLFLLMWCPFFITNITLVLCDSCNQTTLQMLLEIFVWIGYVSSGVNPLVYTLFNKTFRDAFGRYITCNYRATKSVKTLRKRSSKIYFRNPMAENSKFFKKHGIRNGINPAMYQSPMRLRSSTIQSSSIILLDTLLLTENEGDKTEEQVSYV

[11] = Binding affinity to NMDA receptor PCP binding site by radioligand displacement assay
[12] = target: D(2) dopamine receptor (Homo sapiens, UniProt P14416); test: Binding affinity to human D2S agonist site receptor by radioligand displacement assay
Sequence of D(2) dopamine receptor (P14416 whole entry): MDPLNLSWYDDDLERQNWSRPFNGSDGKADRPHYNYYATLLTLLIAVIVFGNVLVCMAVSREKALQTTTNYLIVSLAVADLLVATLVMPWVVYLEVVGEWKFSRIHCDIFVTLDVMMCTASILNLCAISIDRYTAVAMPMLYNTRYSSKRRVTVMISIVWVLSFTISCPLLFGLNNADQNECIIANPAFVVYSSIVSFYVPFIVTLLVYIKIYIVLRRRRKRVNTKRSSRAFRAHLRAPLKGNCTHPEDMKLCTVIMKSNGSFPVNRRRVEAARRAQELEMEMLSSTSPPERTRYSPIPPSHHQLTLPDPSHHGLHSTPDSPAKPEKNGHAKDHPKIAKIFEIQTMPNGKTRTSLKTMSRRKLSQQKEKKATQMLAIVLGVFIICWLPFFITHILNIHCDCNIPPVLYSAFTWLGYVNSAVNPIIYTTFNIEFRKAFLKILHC

[13] = target: D(4) dopamine receptor (Homo sapiens, UniProt P21917); test: Binding affinity to human D4.4 receptor by radioligand displacement assay
Sequence of D(4) dopamine receptor (P21917 whole entry): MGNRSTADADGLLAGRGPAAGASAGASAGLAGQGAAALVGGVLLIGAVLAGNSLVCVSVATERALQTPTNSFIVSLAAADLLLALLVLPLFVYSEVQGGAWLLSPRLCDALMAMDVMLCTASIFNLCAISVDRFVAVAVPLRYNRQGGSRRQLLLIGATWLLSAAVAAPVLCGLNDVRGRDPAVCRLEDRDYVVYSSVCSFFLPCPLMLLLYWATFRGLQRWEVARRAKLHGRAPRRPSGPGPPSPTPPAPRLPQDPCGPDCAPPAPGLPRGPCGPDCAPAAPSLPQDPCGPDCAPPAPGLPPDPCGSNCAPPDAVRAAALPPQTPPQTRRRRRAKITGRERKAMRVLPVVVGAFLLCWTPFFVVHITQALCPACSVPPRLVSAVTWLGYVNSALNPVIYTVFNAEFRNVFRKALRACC

[14] = target: T2, Muscarinic acetylcholine receptor M2; test: Binding affinity to human muscarinic M2 receptor by radioligand displacement assay
[15] = target: Neuronal acetylcholine receptor; alpha4/beta2 (Homo sapiens, UniProt P17787+P43681); test: Binding affinity to nAChR alpha4beta2 receptor by radioligand displacement assay; assay type: protein-complex assay
[16] = target: Adenosine receptor A1 (Homo sapiens, UniProt P30542); test: Binding affinity to human adenosine A1 receptor agonist site by radioligand displacement assay
Sequence of Adenosine receptor A1 (P30542 whole entry): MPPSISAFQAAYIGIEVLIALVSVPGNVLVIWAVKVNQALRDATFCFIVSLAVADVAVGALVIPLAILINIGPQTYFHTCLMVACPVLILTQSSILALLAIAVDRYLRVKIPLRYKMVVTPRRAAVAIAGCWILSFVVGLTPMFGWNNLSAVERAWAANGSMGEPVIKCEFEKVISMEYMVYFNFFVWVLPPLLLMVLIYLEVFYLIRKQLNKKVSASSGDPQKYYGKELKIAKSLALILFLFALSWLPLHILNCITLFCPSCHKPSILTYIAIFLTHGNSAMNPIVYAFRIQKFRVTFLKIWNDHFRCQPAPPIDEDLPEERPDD

[17] = target: Melatonin receptor type 1A (Homo sapiens, UniProt P48039); test: Binding affinity to human MT1 receptor by radioligand displacement assay
Sequence of Melatonin receptor type 1A (P48039 whole entry): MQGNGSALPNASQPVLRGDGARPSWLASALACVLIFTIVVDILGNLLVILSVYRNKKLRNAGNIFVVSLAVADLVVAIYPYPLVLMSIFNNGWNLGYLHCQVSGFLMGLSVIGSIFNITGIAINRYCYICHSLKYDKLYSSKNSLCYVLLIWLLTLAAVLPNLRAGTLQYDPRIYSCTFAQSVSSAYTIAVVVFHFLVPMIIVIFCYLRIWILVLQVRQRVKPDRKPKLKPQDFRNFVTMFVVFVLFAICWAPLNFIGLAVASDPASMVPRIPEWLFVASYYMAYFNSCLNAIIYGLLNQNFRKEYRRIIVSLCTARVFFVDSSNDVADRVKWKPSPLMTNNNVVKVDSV

[18] = target: 5-hydroxytryptamine receptor 7 (Homo sapiens, UniProt P34969); test: Binding affinity to human 5-HT7 receptor by radioligand displacement assay
[19] = target: Histamine H2 receptor (Homo sapiens, UniProt P25021); test: Binding affinity to human histamine H2 receptor by radioligand displacement assay
[20] = target: High affinity choline transporter 1 (Homo sapiens, UniProt Q9GZV3); test: Binding affinity to human choline transporter (CHT1) by radioligand displacement assay
Sequence of High affinity choline transporter 1 (Q9GZV3 whole entry): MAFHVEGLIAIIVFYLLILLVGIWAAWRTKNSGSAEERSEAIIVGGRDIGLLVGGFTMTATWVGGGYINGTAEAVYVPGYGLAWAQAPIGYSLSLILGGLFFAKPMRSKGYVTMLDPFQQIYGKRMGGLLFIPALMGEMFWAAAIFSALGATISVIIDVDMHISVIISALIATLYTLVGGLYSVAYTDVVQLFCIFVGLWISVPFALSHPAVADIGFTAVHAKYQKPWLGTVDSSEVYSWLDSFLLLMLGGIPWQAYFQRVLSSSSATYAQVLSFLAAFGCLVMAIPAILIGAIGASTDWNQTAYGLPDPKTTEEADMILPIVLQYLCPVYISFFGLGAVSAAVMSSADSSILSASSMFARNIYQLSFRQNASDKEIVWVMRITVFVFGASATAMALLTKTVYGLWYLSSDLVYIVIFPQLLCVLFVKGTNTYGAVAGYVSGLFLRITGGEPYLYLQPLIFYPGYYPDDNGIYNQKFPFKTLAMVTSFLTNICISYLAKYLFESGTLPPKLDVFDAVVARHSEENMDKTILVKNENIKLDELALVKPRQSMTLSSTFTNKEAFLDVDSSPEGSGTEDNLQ

[21] = Binding affinity to human muscle-type nicotinic acetylcholine receptor by radioligand displacement assay
[22] = target: Sodium-dependent serotonin transporter (Homo sapiens, UniProt P31645); test: Binding affinity to human 5-HT transporter by radioligand displacement assay
[23] = target: Cannabinoid receptor 1 (Homo sapiens, UniProt P21554); test: Binding affinity to human CB1 receptor by radioligand displacement assay
Sequence of Cannabinoid receptor 1 (P21554 whole entry): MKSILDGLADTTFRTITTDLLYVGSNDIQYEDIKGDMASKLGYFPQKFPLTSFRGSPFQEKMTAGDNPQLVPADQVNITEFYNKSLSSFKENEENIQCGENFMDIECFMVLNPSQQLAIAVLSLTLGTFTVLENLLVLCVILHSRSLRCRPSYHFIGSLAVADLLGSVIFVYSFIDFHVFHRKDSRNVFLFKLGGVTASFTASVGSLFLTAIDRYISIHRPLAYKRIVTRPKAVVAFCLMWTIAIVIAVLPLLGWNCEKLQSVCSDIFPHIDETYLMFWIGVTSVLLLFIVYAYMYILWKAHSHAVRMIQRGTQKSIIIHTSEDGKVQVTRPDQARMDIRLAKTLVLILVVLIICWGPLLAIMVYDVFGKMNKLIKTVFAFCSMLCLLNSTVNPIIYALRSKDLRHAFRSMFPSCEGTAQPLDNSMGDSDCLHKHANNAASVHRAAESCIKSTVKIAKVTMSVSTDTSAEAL

[24] = Binding affinity to Ca2+ channel by radioligand displacement assay
[25] = Binding affinity to GABA transporter by radioligand displacement assay
[26] = target: Adenosine receptor A3 (Homo sapiens, UniProt P0DMS8); test: Binding affinity to human adenosine A3 receptor by radioligand displacement assay
[27] = target: 5-hydroxytryptamine receptor 3A (Homo sapiens, UniProt P46098); test: Binding affinity to human 5-HT3 receptor by radioligand displacement assay
[28] = target: Adenosine receptor A2a (Homo sapiens, UniProt P29274); test: Binding affinity to human adenosine A2A receptor by radioligand displacement assay
[29] = target: Alpha-1A adrenergic receptor (Homo sapiens, UniProt P35348); test: Binding affinity to human adrenergic alpha1A receptor by radioligand displacement assay
Sequence of Alpha-1A adrenergic receptor (P35348 whole entry): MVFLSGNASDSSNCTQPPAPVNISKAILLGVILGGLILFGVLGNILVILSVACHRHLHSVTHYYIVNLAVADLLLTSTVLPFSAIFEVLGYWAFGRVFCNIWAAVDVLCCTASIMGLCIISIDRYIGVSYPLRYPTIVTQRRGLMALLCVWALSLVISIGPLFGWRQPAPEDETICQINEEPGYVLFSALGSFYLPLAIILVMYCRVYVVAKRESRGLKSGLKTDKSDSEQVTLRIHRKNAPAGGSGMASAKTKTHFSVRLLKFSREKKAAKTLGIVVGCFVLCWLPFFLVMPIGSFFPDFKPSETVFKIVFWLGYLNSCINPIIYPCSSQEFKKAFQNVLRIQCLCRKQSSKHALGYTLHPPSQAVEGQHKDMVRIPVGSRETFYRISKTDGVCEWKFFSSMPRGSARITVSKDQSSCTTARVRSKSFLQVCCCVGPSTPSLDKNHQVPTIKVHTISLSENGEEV

[30] = target: Alpha-1B adrenergic receptor (Homo sapiens, UniProt P35368); test: Binding affinity to human adrenergic Alpha-1B receptor by radioligand displacement assay
Sequence of Alpha-1B adrenergic receptor (P35368 whole entry): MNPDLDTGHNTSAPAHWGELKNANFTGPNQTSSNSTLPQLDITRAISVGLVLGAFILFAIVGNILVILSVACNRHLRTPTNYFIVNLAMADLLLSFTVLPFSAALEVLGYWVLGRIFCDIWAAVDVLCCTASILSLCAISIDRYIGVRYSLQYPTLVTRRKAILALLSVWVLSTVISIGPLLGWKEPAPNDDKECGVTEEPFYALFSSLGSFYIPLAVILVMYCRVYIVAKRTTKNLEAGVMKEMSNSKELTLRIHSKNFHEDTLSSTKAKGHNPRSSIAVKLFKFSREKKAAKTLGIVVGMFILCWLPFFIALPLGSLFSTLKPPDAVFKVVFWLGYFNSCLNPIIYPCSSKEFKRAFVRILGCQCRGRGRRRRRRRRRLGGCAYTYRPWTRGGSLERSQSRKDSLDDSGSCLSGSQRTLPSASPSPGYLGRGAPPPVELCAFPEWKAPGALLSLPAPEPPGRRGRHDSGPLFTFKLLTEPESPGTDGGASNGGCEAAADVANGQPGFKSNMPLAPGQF

[31] = target: T3, Muscarinic acetylcholine receptor M1 (Homo sapiens, UniProt P11229)
T3 sequence (P11229 whole entry): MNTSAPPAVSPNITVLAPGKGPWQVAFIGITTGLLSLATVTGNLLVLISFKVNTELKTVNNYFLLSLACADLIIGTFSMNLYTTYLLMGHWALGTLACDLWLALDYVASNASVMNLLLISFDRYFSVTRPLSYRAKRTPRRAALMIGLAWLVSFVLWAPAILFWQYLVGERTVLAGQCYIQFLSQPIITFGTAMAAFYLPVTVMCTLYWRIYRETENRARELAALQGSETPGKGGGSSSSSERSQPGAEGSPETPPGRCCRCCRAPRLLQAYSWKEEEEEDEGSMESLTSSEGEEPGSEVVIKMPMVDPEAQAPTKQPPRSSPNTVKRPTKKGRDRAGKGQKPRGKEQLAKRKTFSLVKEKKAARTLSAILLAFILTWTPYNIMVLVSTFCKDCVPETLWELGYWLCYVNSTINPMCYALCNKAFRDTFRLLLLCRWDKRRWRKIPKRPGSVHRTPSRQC

[32] = target: Tyrosine-protein kinase Lyn (Homo sapiens, UniProt P07948); test: Binding affinity to Lyn by enzyme assay
Sequence of Tyrosine-protein kinase Lyn (P07948 whole entry): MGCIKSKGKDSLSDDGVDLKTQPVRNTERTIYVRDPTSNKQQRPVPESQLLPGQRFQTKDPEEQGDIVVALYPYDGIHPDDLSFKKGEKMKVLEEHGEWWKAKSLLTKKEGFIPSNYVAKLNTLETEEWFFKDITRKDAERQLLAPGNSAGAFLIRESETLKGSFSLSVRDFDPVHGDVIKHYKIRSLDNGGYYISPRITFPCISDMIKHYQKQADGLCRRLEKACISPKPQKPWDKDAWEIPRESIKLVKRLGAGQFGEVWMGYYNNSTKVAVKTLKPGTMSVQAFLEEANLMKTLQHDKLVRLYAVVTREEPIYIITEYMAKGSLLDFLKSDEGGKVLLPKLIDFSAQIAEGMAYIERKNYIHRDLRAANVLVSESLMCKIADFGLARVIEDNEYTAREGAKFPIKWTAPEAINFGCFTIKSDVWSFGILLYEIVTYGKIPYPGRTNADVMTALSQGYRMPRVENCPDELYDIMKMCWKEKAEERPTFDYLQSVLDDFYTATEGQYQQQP

[33] = target: Urotensin-2 receptor (Homo sapiens) (UniProt Q9UKP6); test: Binding affinity to human UT1 receptor by radioligand displacement assay
Sequence of Urotensin-2 receptor (Homo sapiens) (Q9UKP6 whole entry, looked up): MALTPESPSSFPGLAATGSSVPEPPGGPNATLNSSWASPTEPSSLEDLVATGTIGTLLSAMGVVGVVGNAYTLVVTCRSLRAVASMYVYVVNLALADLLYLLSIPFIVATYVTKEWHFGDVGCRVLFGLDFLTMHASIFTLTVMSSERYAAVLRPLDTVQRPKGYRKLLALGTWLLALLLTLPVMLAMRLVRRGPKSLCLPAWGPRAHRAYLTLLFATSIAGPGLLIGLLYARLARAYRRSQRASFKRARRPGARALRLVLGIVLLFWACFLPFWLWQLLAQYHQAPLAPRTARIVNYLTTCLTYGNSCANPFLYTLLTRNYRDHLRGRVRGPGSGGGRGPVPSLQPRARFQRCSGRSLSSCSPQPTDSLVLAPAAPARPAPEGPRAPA

SMILES: O=C(Cc1ccccc1)NC1CCN(CCCN2C(=O)COc3ccccc32)CC1
- Emax [1]: 0%
- Ki [2]: 2.2 µM
- Ki [3]: 7 µM
- CL [4]: 3.4 L/min
- clearance [5]: 83.3 mL/min/kg
- Tmax [6]: 48 min
- concentration at 0.5 h [7]: 440 ng/g
- Ki [8]: >= 1000 nM
- Ki [9]: ≥ 1 µM
- Ki [10]: ≥ 1 µM
- Ki [11]: ≥ 1 µM
- Ki [12]: ≥ 1 µM
- Ki [13]: ≥ 1 µM
- Ki [14]: ≥ 1 µM
- Ki [15]: ≥ 1 µM
- Ki [16]: ≥ 1 µM
- Ki [17]: ≥ 1 µM
- Ki [18]: ≥ 1 µM
- Ki [19]: ≥ 1 µM
- Ki [20]: ≥ 1 µM
- Ki [21]: ≥ 1 µM
- Ki [22]: ≥ 1 µM
- Ki [23]: ≥ 1 µM
- Ki [24]: ≥ 1 µM
- Ki [25]: ≥ 1 µM
- Ki [26]: ≥ 1 µM
- Ki [27]: ≥ 1 µM
- Ki [28]: ≥ 1 µM
- Ki [29]: 0.26 µM
- Ki [30]: 0.91 µM
- EC50 [31]: 0.061 µM
- Ki [32]: ≥ 1 µM
- Ki [33]: ≥ 1 µM
